Read-outs that look alike come from different tables or passages of the source.
What was measured:
human PPARα [1] = target: T1, human PPARα (Homo sapiens, UniProt Q07869); assay: Radioligand binding assay, GST-PPARα-LBD
T1 construct: PPARγ (aa 174 to 476) and PPARα (aa 167 to 469); made in house; host or cells: E. coli BL21(pLysS)
T1 sequence (Q07869 167-468 limits assumed): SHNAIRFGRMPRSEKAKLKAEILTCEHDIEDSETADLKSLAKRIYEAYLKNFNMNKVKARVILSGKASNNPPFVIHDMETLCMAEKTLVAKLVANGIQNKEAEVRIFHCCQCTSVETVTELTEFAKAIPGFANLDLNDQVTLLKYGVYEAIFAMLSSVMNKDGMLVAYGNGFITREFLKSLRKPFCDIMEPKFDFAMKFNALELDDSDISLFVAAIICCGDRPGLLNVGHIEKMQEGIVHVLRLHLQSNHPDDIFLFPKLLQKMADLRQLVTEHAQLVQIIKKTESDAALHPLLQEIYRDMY
Description: (§1) Full-length cDNA clones for human PPARα and mouse PPARγ were obtained by RT-PCR from human adipose and mouse liver cRNA, respectively, cloned into plasmid vectors and verified by DNA sequencing. […] To accomplish this, the portions of the cloned sequences encoding the LBDs were amplified from the full-length clones by PCR and then subcloned into the plasmid vectors. Final clones were verified by DNA sequence analysis.
(§2) Induction, expression, and purification of GST-LBD fusion proteins were performed in E. coli strain BL21(pLysS) cells by standard methods (Ref: Current Protocols in Molecular Biology, Wiley Press, edited by Ausubel et al.).
PPARα receptor binding was assayed in TKE10 (10 mM Tris-HCl, pH 8, 50 mM KCl, 2 mM EDTA, 0.1 mg/ml fatty acid free BSA and 10 mM DTT). For each 96 well 2.4 ug equivalent of GST-PPARα-LBD fusion protein and radioligand, e.g. 40000 dpm 2(S)-(2-benzoyl-phenylamino)-3-{4-[1,1-ditritio-2-(5-methyl-2-phenyl-oxazol-4-yl)-ethoxy]-phenyl}-propionic acid, were incubated in 100 ul volume at RT for 2 hrs. Bound ligand was removed from unbound ligand by solid phase separation using MultiScreen plates (Millipore) filled with 80 ul of SG25 according to the manufacturer's recommendations.
(§3) PPARγ receptor binding was assayed in TKE50 (50 mM Tris-HCl, pH 8, 50 mM KCl, 2 mM EDTA, 0.1 mg/ml fatty acid-free BSA and 10 mM DTT). For each 96 well reaction an 140 ng equivalent of GST-PPARγ-LBD fusion protein was bound to 10 ug SPA beads (PharmaciaAmersham) in a final volume of 50 ul by shaking. The resulting slurry was incubated for 1 h at RT and centrifuged for 2 min at 1300 g. The supernatant containing unbound protein was removed and the semidry pellet containig the recptor-coated beads was resolved in 50 ul of TKE. For radioligand binding e.g. 10000 dpm 2(S)-(2-benzoyl-phenylamino)-3-{4-[1,1-ditritio-2-(5-methyl-2-phenyl-oxazol-4-yl)-ethoxy]-phenyl}-propionic acid in 50 ul were added, the reaction incubated at RT for 1 h and scintillation proximity counting performed. All binding assays were performed in 96 well plates and the amount of bound ligand measured on a Packard TopCount using OptiPlates (Packard). Nonspecific binding was determined in the presence of 10^−4 M unlabelled compound. Dose response curves were done in triplicates within a range of concentration from 10^−10 M to 10^−4 M.

human PPARα [2] = target: T1, human PPARα; assay: Luciferase transcriptional reporter gene assay, pFA-PPARα-LBD in BHK21 cells; type: cell-based
Description: as §1
(§4) Baby hamster kidney cells (BHK21 ATCC CCL10) were grown in DMEM medium containing 10% FBS at 37° C. in a […] atmosphere. Cells were seeded in 6 well plates at a density of 10^5 Cells/well and then transiently batch-transfected with either the pFA-PPARγ-LBD or pFA-PPARα-LBD expression plasmids plus a reporter plasmid and an expression plasmid encoding the secretable form of alkaline phosphatase (SEAP) as a normalization control. […] Six hours following transfection, the cells were harvested by trypsinization and seeded in 96 well plates at a density of 10^4 cells/well. After 24 hours to allow attachment of cells, the medium was removed and replaced with 100 ul of phenol red-free medium containing the test substances or control ligands (final DMSO concentration: 0.1%). Following incubation of the cells for 24 hours with substances, 50 ul of the supernatant was recovered and analyzed for SEAP activity (Roche Molecular Biochemicals). The remainder of the supernatant was discarded, 50 ul PBS was added per well followed by one volume of Luciferase Constant-Light Reagent (Roche Molecular Biochemicals) to lyse the cells and initiate the luciferase reaction. Luminescence for both SEAP and luciferase was measured in a Packard TopCount. Luciferase activity was normalized to the SEAP control and transcriptional activation in the presence of a test substance was expressed as fold-activation over cells incubated in the absence of the substance. EC50 values were calculated using the XLfit program (ID Business Solutions Ltd. UK).

mouse PPARγ [3] = target: T2, mouse PPARγ (Mus musculus, UniProt P37238); assay: Radioligand binding assay (SPA), GST-PPARγ-LBD; set-up: PPARγ (aa 174 to 476)
T2 sequence (P37238 204-505): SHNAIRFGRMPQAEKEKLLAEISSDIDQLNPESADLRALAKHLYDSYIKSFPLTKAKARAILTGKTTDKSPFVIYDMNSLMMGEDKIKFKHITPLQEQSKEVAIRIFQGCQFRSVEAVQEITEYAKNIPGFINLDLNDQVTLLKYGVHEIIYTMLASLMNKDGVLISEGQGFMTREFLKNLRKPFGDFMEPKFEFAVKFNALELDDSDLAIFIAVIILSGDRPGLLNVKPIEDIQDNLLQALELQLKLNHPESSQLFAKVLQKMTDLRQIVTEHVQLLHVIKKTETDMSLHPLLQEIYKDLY
Description: as §1, §2, §3

mouse PPARγ [4] = target: T2, mouse PPARγ; assay: Luciferase transcriptional reporter gene assay, pFA-PPARγ-LBD in BHK21 cells; type: cell-based; set-up: PPARγ (aa 174 to 476) and PPARα (aa 167 to 469); expressed in transfected cells; host or cells: BHK21 (ATCC CCL10)
Description: as §1, §4

[5] = GST-PPARα-LBD, tritiated radioligand, RT 2 hrs, read-out: PPARα IC50
[6] = BHK21 cells transfected with pFA-PPARα-LBD, 24 hours incubation, read-out: PPARα EC50
[7] = GST-PPARγ-LBD on SPA beads, tritiated radioligand, RT 1 h, read-out: PPARγ IC50
[8] = BHK21 cells transfected with pFA-PPARγ-LBD, 24 hours incubation, read-out: PPARγ EC50

Structure (SMILES) | PPARα IC50 (human PPARα [1]; GST-PPARα-LBD, tritiated radioligand, RT 2 hrs) | PPARα EC50 (human PPARα [2]; BHK21 cells transfected with pFA-PPARα-LBD, 24 hours incubation) | IC50 (human PPARα [1]; [5]) | EC50 (human PPARα [2]; [6]) | IC50 (mouse PPARγ [3]) | EC50 (mouse PPARγ [4]) | IC50 (human PPARα [1]) | EC50 (human PPARα [2]) | IC50 (mouse PPARγ [3]; [7]) | EC50 (mouse PPARγ [4]; [8])
CN(CCOc1ccc(CC2SC(=O)NC2=O)cc1)c1ccccn1 (centres unmarked) [Rosiglitazone, reference compound] | inactive | inactive | – | – | – | – | – | – | – | –
CCO[C@@H](Cc1ccc(OCc2nc(-c3ccc(C(C)C)cc3)oc2C)cc1OC)C(=O)O [Example 25, (S)-2-Ethoxy-3-{4-[2-(4-isopropyl-phenyl)-5-methyl-oxazol-4-ylmethoxy]-2-methoxy-phenyl}-propionic acid] | – | – | 177 nM | 26 nM | 129 nM | 75 nM | – | – | – | –
CCO[C@@H](Cc1ccc(OCc2nc(-c3ccccc3)oc2C)cc1C)C(=O)O [Example 3, (S)-2-Ethoxy-3-[2-methyl-4-(5-methyl-2-phenyl-oxazol-4-ylmethoxy)-phenyl]-propionic acid] | – | – | 87 nM | 57 nM | 506 nM | 87 nM | – | – | – | –
CCO[C@@H](Cc1ccc(OCc2nc(-c3ccc(F)c(C)c3)oc2C)cc1CC)C(=O)O [Example 9, (S)-2-Ethoxy-3-{2-ethyl-4-[2-(4-fluoro-3-methyl-phenyl)-5-methyl-oxazol-4-ylmethoxy]-phenyl}-propionic acid] | – | – | 196 nM | 21 nM | 129 nM | 33 nM | – | – | – | –
CCO[C@@H](Cc1c(C)cc(OCc2nc(-c3ccccc3)oc2C)cc1C)C(=O)O [Example 29, (S)-3-[2,6-Dimethyl-4-(5-methyl-2-phenyl-oxazol-4-ylmethoxy)-phenyl]-2-ethoxy-propionic acid] | – | – | 2380 nM | 213 nM | 1730 nM | 678 nM | – | – | – | –
CCO[C@@H](Cc1ccc(OCc2nc(-c3ccc(OC(C)C)cc3)oc2C)cc1C)C(=O)O [Example 2, (S)-2-Ethoxy-3-{4-[2-(4-isopropoxy-phenyl)-5-methyl-oxazol-4-ylmethoxy]-2-methyl-phenyl}-propionic acid] | – | – | 30 nM | 163 nM | 58 nM | 115 nM | – | – | – | –
CCO[C@@H](Cc1ccc(OCc2nc(-c3ccc(F)c(C)c3)oc2C)cc1C)C(=O)O [Example 5, (S)-2-Ethoxy-3-{4-[2-(4-fluoro-3-methyl-phenyl)-5-methyl-oxazol-4-ylmethoxy]-2-methyl-phenyl}-propionic acid] | – | – | 155 nM | 38 nM | 146 nM | 124 nM | – | – | – | –
CCO[C@@H](Cc1ccc(OCc2nc(-c3ccc(OC(C)C)cc3)oc2C)cc1Cl)C(=O)O [Example 17, (S)-3-{2-Chloro-4-[2-(4-isopropoxy-phenyl)-5-methyl-oxazol-4-ylmethoxy]-phenyl}-2-ethoxy-propionic acid] | – | – | 73 nM | 186 nM | 31 nM | 174 nM | – | – | – | –
CO[C@@H](Cc1ccc(OCCc2nc(-c3ccccc3)oc2C)cc1O)C(=O)O [Example 23, (S)-3-{2-Hydroxy-4-[2-(5-methyl-2-phenyl-oxazol-4-yl)-ethoxy]-phenyl}-2-methoxy-propionic acid] | – | – | – | – | – | – | 52 nM | 306 nM | 48 nM | 138 nM
CCO[C@@H](Cc1ccc(OCCCc2nc(-c3ccccc3)oc2C)cc1C)C(=O)O [Example 43, (S)-2-Ethoxy-3-{2-methyl-4-[3-(5-methyl-2-phenyl-oxazol-4-yl)-propoxy]-phenyl}-propionic acid] | – | – | – | – | – | – | 131 nM | 150 nM | 33 nM | 57 nM
